Results from US20230265167A1, “COMPOSITIONS HAVING NEUROREGENERATIVE APPLICATIONS” (GRIFOLS WORLDWIDE OPERATIONS LIMITED, priority 2020, published 2023).

How the values were obtained:
[1] = system: C57BL/6J mice with transient MCAo; assay: Neuroscore recovery after transient MCAo; type: in vivo, mouse; conditions: FIG. 10A, 3-14 days after MCAo, vs saline
Experimental: (§1) C57BL/6J mice (ca. 20 g) were anaesthetized under isoflurane and, after dissection, a 6.0 silicon-coated monofilament suture was inserted into the external carotid artery to occlude the middle cerebral artery (MCAo). The occlusion was carried out for 60 minutes under temperature control.
(§2) Only animals with a ‘neuroscore’ of 4 or greater were considered for further testing (n=8-10 animals/group). At six hours post-occlusion, mice were injected daily with 350 mg/kg of Apo-transferrin (i.p.) or an equal volume of saline for a total of seven days, as well as with 50 mg/kg Bromodeoxyuridine (BrdU; Sigma-Aldrich Chemical, St. Louis, Mo.), both articles delivered by intraperitoneal administration. Weight changes were monitored daily.
Mice were prepared as indicated in Example 9 above and were subjected to assessments at 3 days and 1, 2, 3, 4 weeks post-MCAo, as indicated (n=8-10 animals/group). Motor coordination (i.e. equilibrium behavior and locomotor ability as a function of cortico-striatal function) was assessed using a rotarod test. Learning and memory capacity were measured using the NORT (novel object recognition test; for example, Anglada-Huguet et al., 2014, Molecular Neurobiology, vol. 49, pages 784-795; Denninger et al., 2018, J. Vis. Exp., vol. 141, e58593). […]

[2] = Iron saturation by ICP-AES; type: physicochemical
Excerpt: The skilled person will appreciate that transferrin iron saturation levels can be readily determined without undue burden by quantifying the total iron levels in a sample having a known transferrin concentration. The total iron levels in sample can be measured by any one of a number of methods know by those of skill in the art. Suitable examples include: • Colorimetric assays—Iron is quantitated by measuring the intensity of the violet complex formed in the reaction between ferrozine and Fe^2+ in acetate buffer at 562 nm. Thiourea or other chemicals can be added to complex contaminant metals such Cu^2+, which can also bind with ferrozine and yield falsely elevated iron values. See Ceriotti et al., Improved direct specific determination of serum iron and total iron-binding capacity Clin Chem. 1980, 26(2), 327-31, the contents of which are incorporated herein by reference. • Inductively Coupled Plasma Atomic Emission Spectroscopy (ICP-AES)—is an emission spectroscopy technique that quantifies the mass percentage of metals in a sample. ICP-AES is based on the excitation of metal atoms/ions in the sample using a plasma (an ionized gas consisting of positive ions and free electrons) and analyzing the emission wavelength of the electromagnetic radiation, which is typical of that particular metal. Even though the technique is a standard analytical technique within common general knowledge of the skilled person, further information on ICP-AES can be found in Manley et al., Simultaneous Cu-, Fe-, and Zn-specific detection of metalloproteins contained in rabbit plasma by size-exclusion chromatography-inductively coupled plasma atomic emission spectroscopy. J Biol Inorg Chem. 2009, 14, 61-74, the contents of which are incorporated herein by reference.
The preferred method of determining the iron content of a sample for the purposes of the therapeutic method of the present invention is ICP-AES. The iron saturation of transferrin is then calculated based on the transferrin protein concentration, total iron content of the sample, and the fact that wild type transferrin has two iron-binding sites. Wild type human transferrin (molecular weight 79,750) can bind two iron atoms such that a sample containing 1 g of transferrin would be 100% saturated by 1.4 mg of iron.
Protein purity was determined by SDS-PAGE. Iron saturation levels were determined using ICP-AES in accordance with the procedures outlined in Manley et al., J Biol Inorg Chem (2009) 14:61-74, the contents of which are incorporated herein by reference.

[3] = system: C57BL/6J mice with transient MCAo; assay: Novel object recognition test (NORT) after transient MCAo; type: in vivo, mouse; conditions: FIG. 10C, at least two weeks, vs saline
Experimental: as §1, §2
Mice were prepared as indicated in Example 9 above and were subjected to assessments at 3 days and 1, 2, 3, 4 weeks post-MCAo, as indicated (n=8-10 animals/group). Motor coordination (i.e. equilibrium behavior and locomotor ability as a function of cortico-striatal function) was assessed using a rotarod test. Learning and memory capacity were measured using the NORT (novel object recognition test; for example, Anglada-Huguet et al., 2014, Molecular Neurobiology, vol. 49, pages 784-795; Denninger et al., 2018, J. Vis. Exp., vol. 141, e58593).
The time that it takes an animal to fall (Latency to fall) from the rotarod is shown vs time after MCAo. The motor skills of the mice reflect those of the neuroscore in FIG. 10A, with an increased rate of improvement in motor/balance skills, as measured by the amount of time animals stayed on the rotarod apparatus. […] The Discrimination (%) is a description of an animal's memory, as measured by the percentage of time in which an animal investigates newly presented objects compared to the time they investigate previously presented objects. Animals with better cognition and memory spend more time with the novel object due to memories of the object previously presented to the animal; this is shown as increased % Discrimination.

## apo-transferrin: iron-free form of transferrin protein, obtained and purified from pooled human plasma
[1]
  rate of recovery (percentage of animals with neuroscore 0): quicker recovery
[1]; listed as ApoTf
  rate of recovery (percentage of animals with neuroscore 0): significantly improves the rate at which the animals recover
[2]
  Iron Saturation (%): < 0.3%
[3]
  learning recognition / Discrimination (%) in NORT: higher cognition
[3]; listed as ApoTf
  learning recognition / Discrimination (%) in NORT: increases learning recognition functions
[3]; listed as apoTf
  learning recognition / Discrimination (%) in NORT: higher ‘percent Discrimination’
